# Source: ChEMBL document CHEMBL1201862, “PubChem BioAssay data set” (2004)
# Active and inactive are the calls of the source. No stated cut-off is given here; in the data, actives have a measured IC50 and inactives only a lower limit.
# Target: Envelope glycoprotein gp160 (Human immunodeficiency virus 1, UniProt Q6QLK5)
# Assay: inhibitors of HIV fusion peptide binding, primary screen, biochemical, uHTS, fluorescence dequenching (AID 1986)
# Sequence of Envelope glycoprotein gp160 (Q6QLK5 whole entry, the tested form may be a part): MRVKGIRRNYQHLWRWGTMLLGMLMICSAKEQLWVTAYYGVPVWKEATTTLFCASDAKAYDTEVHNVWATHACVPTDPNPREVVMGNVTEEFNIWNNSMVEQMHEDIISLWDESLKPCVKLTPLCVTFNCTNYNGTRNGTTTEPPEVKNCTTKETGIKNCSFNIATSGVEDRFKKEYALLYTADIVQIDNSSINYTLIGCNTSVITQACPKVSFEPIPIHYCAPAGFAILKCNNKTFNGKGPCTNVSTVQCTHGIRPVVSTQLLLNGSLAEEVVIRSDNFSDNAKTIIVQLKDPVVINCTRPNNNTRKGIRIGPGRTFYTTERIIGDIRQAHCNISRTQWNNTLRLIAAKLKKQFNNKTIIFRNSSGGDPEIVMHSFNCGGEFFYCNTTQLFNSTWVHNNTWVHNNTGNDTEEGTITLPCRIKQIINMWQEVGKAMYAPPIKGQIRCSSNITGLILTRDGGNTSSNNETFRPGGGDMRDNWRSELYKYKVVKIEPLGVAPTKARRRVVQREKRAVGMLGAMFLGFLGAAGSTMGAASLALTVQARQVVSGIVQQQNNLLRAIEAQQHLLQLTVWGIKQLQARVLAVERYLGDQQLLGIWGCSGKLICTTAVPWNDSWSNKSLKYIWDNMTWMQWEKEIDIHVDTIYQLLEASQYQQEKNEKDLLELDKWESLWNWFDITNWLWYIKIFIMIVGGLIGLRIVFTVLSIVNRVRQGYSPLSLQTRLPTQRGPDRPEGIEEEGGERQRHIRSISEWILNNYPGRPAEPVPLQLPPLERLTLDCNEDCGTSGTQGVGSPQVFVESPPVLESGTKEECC
row,Compound,IC50
1,COC(=O)c1sc(-c2ccc(C(C)(C)C)cc2)cc1NC(=O)CSCC(=O)O,15.4 µM (active)
2,O=C(CCN1C(=O)/C(=C/c2ccccc2Cl)SC1=S)Nc1ccccc1C(=O)O,19.4 µM (active)
3,COc1cc(/C=C2\C(=N)N3N=C(S(C)(=O)=O)SC3=NC2=O)cc(OC)c1OCCOc1ccc(C)cc1,11 µM (active)
